Entries after “also recorded” stand apart in the source; their conditions may differ.
Columns and labels:
[1] = target: T1, glucocorticoid receptor (estrogen-primed rabbit thymus) (Oryctolagus cuniculus, UniProt P59667); assay: Relative binding affinity, glucocorticoid receptor; settings: for RELATIVE BINDING AFFINITY Glucocorticoid / BINDING AFFINITY Glucocortic: estrogen-primed rabbit thymus, dexamethasone = 100%; for BINDING AFFINITY Glucocortic: Table 2
T1 construct: preparation of cytosols for the progesterone and glucocorticoid receptor assays; from tissue; host or cells: thymus of estradiol-primed immature female New Zealand White rabbits (cytosol)
T1 sequence (P59667 1-772): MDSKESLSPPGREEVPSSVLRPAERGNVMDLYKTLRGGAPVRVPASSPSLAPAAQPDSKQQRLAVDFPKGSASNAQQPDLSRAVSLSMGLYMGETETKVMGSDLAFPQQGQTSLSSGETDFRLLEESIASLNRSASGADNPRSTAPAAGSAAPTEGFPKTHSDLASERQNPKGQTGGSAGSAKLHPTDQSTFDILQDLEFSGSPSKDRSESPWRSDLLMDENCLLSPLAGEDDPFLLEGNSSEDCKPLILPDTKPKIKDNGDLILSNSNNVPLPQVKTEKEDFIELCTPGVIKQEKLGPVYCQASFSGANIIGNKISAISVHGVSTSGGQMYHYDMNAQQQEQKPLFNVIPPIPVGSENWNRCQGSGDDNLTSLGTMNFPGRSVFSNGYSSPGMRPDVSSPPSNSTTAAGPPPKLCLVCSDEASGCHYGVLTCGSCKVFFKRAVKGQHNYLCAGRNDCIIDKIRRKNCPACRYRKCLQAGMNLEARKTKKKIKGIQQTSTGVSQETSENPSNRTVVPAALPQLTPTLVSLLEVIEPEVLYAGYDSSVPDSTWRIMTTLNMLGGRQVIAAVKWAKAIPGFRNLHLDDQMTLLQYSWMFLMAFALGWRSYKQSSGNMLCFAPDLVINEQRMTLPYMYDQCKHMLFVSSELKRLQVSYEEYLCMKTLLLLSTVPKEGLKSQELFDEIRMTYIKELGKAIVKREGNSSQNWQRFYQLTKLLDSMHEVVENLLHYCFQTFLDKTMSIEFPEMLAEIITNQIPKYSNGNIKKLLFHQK
Description: (§1) Relative Binding Affinities for the Progesterone and Glucocorticoid Receptors
(§2) Uteri and thymus glands were obtained from estradiol-primed immature female rabbits of the New Zealand White strain for preparation of cytosols for the progesterone and glucocorticoid receptor assays, respectively. Tissues were excised and immediately placed in ice cold TEGDM buffer (10 mM Tris, pH 7.4; 1.5 mM EDTA; 10% glycerol vol/vol/; 1 mM dithiothreitol [DTT]; and 20 mM sodium molybdate). The tissues were dissected free of connective tissue and fat, weighed and minced finely. Minced tissues were homogenized in 3 volumes TEGDM/gm with four 10 second bursts of a VirTis Cyclone set at half maximum speed with a 30 second cooling period (in ice) between bursts. Homogenates were centrifuged at 109,663 g at 4° C. for 1 hour to yield the soluble cytosol fiction. Aliquots of cytosol were snap frozen and stored at −75° C.
(§3) All binding assays were carried out at 2-6° C. for 16-18 hours. The following radioactive ligands were used: [1,2-^3H(N)]-progesterone (50.0 Ci/mmole) for the progesterone receptor (PR). […] For the progesterone receptor RBA assays 0.02 ml uterine cytosol or TEDGM buffer, 0.05 ml of various concentrations of test compounds or progesterone, 0.13 ml TEGDM buffer and 0.05 ml [^3H]-progesterone were added to duplicate tubes. For the glucocorticoid receptor RBA assays 0.1 ml thymus cytosol or TEDGM buffer, 0.05 ml of various concentrations of test compounds or dexamethasone, 0.05 ml TEGDM buffer and 0.05 ml [3H]-dexamethasone were added to duplicate tubes. For the estrogen receptor RBA assays 0.05 ml uterine cytosol, 0.1 ml TEGDM buffer, 0.05 ml of various concentrations of test compounds or estradiol and 0.05 ml [^3H]-estradiol were added to duplicate tubes. The concentrations of the test compounds, progesterone, dexamethasone and estradiol ranged from 0.05 to 100 nM and the concentrations of the competitors ranged from 0.5 to 500 nM. Total binding was measured at radioligand concentrations of 3.5 nM and nonspecific binding was measured in the presence of a 200-fold excess of unlabeled progesterone (PR), dexamethasone (GR) or diethylstilbestrol (ER), respectively.
(§4) In all incubations bound and free ligand were separated using dextra-coated charcoal (DCC). A 0.1 ml aliquot of DCC (0.5% charcoal/0.05% Dextran T-70) was added to each tube. The tubes were vortexed and incubated on ice for 10 minutes. Five-tenths ml TEG buffer (without DTT or molybdate) was then added to all tubes to improve supernatant recovery following centrifugation. The charcoal was pelleted by centrifugation at 2,100 g for 15 minutes at 4° C. The supernatants containing the [^3H]-steroid receptor complexes were decanted into vials containing 4 ml Optifluor (Packard Instrument Co.), vortexed, equilibrated in a liquid scintillation counter for 30 minutes and then counted for 2 minutes. This provided the quantity of receptor bound [^3H]-steroid at each competitor concentration.

[2] = test system: progesterone-induced endometrial proliferation; assay: AntiMcGinty test; type: in vivo, rabbit; settings: for ANTIPROGESTATIONAL Anti-McGinty: relative potency, CDB-2914 = 100 (assigned), intraluminal, rabbit
Description: AntiMcGinty Test (McGinty, et al., Endocrinology, 24:829-832 (1939))
Immature female rabbits of the New Zealand White breed (approx. 1 kg body weight) were maintained under standard laboratory conditions and received a subcutaneous injection of 5 μg estradiol in 10% ethanol/sesame oil daily for 6 consecutive days. Twenty-four hours after the last injection of estradiol (day 7) animals underwent sterile abdominal surgery to ligate a 3-4 cm segment of both uterine horns. The experimental compound in appropriate solvent (usually 10% ethanol/sesame oil) was injected intraluminally into the ligated segment of one uterine horn and the vehicle alone into the ligated segment of the contralateral horn. Injection volume was limited to 0.1 ml, and care was taken to prevent leakage. A stimulating dose of progesterone (0.8 mg/day) was administered subcutaneously to each rabbit daily for the next three days (days 7, 8 and 9) for the purpose of inducing endometrial proliferation. All animals were sacrificed on day 10 when a segment central to the ligatures was removed and fixed in 10% neutral buffered formalin and submitted for histological processing. Five micron sections stained with hematoxylin and eosin (H&E) were evaluated microscopically for the degree of endometrial glandular proliferation according to the method of McPhail (McPhail, J. Physiol., 83:145 (1934). The percent inhibition of endometrial proliferation for each rabbit was calculated and the mean of the group of five animals recorded.

[3] = target: T2, progesterone receptor (estrogen-primed rabbit uterus) (Oryctolagus cuniculus, UniProt P06186); assay: Relative binding affinity, progesterone receptor; settings: for RELATIVE BINDING AFFINITY Progesterone / BINDING AFFINITY Progester: estrogen-primed rabbit uterus, progesterone = 100%; for binding affinities compared with the standard, compound 69B: progesterone receptor implied (rabbit or human isoform A not specified); for BINDING AFFINITY Progester: Table 2
T2 construct: preparation of cytosols for the progesterone and glucocorticoid receptor assays; from tissue; host or cells: uterus of estradiol-primed immature female New Zealand White rabbits (cytosol)
T2 sequence (P06186 1-930): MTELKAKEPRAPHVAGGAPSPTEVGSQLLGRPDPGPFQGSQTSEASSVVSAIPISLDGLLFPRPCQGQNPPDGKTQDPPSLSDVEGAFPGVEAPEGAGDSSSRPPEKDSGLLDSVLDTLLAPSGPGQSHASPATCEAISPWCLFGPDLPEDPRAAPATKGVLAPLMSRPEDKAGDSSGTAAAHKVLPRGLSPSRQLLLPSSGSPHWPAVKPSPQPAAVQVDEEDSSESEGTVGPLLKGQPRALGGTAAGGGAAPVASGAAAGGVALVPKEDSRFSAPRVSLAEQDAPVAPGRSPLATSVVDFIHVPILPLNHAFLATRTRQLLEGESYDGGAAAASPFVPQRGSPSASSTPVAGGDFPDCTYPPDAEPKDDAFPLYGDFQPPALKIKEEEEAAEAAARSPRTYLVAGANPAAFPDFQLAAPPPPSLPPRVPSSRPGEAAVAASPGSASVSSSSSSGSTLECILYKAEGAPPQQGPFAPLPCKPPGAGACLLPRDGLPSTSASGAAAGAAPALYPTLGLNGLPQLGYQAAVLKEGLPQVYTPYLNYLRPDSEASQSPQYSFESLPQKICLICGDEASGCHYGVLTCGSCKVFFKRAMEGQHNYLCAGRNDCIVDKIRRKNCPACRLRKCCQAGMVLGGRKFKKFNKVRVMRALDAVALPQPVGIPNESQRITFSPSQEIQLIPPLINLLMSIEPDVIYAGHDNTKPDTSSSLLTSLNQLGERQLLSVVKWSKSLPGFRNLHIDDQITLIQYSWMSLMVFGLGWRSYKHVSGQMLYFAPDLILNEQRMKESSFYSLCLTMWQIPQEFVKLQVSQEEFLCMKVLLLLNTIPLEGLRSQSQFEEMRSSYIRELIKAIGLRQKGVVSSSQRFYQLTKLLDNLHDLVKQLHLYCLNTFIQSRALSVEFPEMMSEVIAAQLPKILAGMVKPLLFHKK
Description: as §1, §2, §3, §4

[4] = test system: progesterone-induced endometrial proliferation; assay: AntiClauberg test; type: in vivo, rabbit; set-up: key to ANTIPROGESTATIONAL Anti-Clauberg: relative oral potency vs. reference compound set to 100; settings: oral; for antiClauberg / oral antiprogestational activity, in words: versus the standard 69B; for BIOLOGICAL ACTIVITY antiClauberg: Table 2
Description: AntiClauberg Test (Clauberg, C., Zentr. Gynakol., 54:2757-2770 (1930)) Immature female rabbits of the New Zealand White breed (approx. 1 kg body weight) were maintained under standard laboratory conditions and received a subcutaneous injection of 5 μg estradiol in 10% ethanol/sesame oil daily for 6 consecutive days. Twenty-four hours after the last dose of estradiol (day 7) animals received progesterone by subcutaneous injection (0.8 mg/day) and the experimental compound in appropriate vehicle (usually 10% ethanol/sesame oil) orally or subcutaneously for five consecutive days. One group of rabbits received progesterone only. Twenty-four hours after the last dose all animals were sacrificed for removal of the uterus which was cleaned of all fat and connective tissue, weighed to the nearest 0.2 mg and placed in 10% neutral buffered formalin for subsequent histological processing. Five micron sections stained with hematoxylin and eosin (H&E) were evaluated microscopically for the degree of endometrial glandular proliferation according to the method of McPhail (McPhail, supra). The percent inhibition of endometrial proliferation at each dose level of the experimental compound was derived by comparison with the progesterone-stimulated animals alone.

Structure (SMILES) | RELATIVE BINDING AFFINITY Glucocorticoid [1] [%] | ANTIPROGESTATIONAL Anti-McGinty [2] | RELATIVE BINDING AFFINITY Progesterone [3] [%] | BINDING AFFINITY Glucocortic [1] [%] | BIOLOGICAL ACTIVITY antiClauberg ([4]; CDB-2914 = 100 (assigned)) | BINDING AFFINITY Progester [3] [%] | also measured
CC(=O)O[C@]1(C(=O)CSC(C)=O)CC[C@H]2[C@@H]3CCC4=CC(=O)CCC4=C3[C@@H](c3ccc(N(C)C)cc3)C[C@@]21C [Compound 17, 17α-acetoxy-21-acetylthio-11β-[4-(N,N-dimethylamino)phenyl]-19-norpregna-4,9-diene-3,20-dione] | 54 | 65 | 37 | – | – | – | –
CC(=O)SCC(=O)C1(O)CCC2C3CCC4=CC(=O)CCC4=C3C(c3ccc(N(C)C)cc3)CC21C (centres unmarked) [Compound 16] | 77 | >2 | 6 | – | – | – | –
CC(=O)O[C@]1(C(=O)CBr)CCC2C3CCC4=CC(=O)CCC4=C3C(c3ccc(N(C)C)cc3)C[C@@]21C (stereo partly drawn) [Compound 14B, 17α-acetoxy-21-bromo-11β-[4-(N,N-dimethylamino)phenyl]-19-norpregna-4,9-diene-3,20-dione] | 175 | 71 | 130 | – | – | – | antiprogestational activity compared with the lead compound / standard, in words ([2]; antiMcGinty (and antiClauberg), versus CDB-2914 (69B)): did not show significant differences; binding affinities compared with the standard, compound 69B [3]: binding affinities greater than that observed for the standard; binding affinity for the progesterone receptor, in words ([3]; rabbit uterine, versus CDB-2914 (69B) where stated): did not show significant differences
COCC(=O)[C@@]1(OC(C)=O)CC[C@H]2[C@@H]3CCC4=CC(=O)CCC4=C3[C@@H](c3ccc(N(C)C)cc3)C[C@@]21C [Compound 38, 17α-acetoxy-21-methoxy-11β-(4-N,N-dimethylaminophenyl)-19-norpregna-4,9-diene-3,20-dione] | 52 | – | 103 | – | – | – | binding affinity for the glucocorticoid receptor, in words ([1]; rabbit thymus, versus CDB-2914 (69B) where stated): substantial reduction in glucocorticoid binding affinity; also recorded: low binding affinity; ANTIPROGESTATIONAL Anti-Clauberg ([4]; relative potency, CDB-2914 = 100 (assigned)): 361; antiprogestational potency compared to the lead compound (CDB-2914), oral antiClauberg test ([4]; versus CDB-2914): 3.61 times; antiClauberg / oral antiprogestational activity, in words [4]: greater activity than the standard; binding affinities compared with the standard, compound 69B [3]: binding affinities greater than that observed for the standard
COC1(C(C)=O)CCC2C3CCC4=CC(=O)CCC4=C3C(c3ccc(N4CCCCC4)cc3)CC21C (stereo not drawn) [Compound 97b, 17α-Methoxy-1-[4-(piperidino)phenyl]-19-norpregna-4,9-diene-3,20-dione] | – | – | – | 38 | 99 | 47 | –
COCC(=O)OCC(=O)[C@@]1(OC(C)=O)CC[C@H]2[C@@H]3CCC4=CC(=O)CCC4=C3[C@@H](c3ccc(N(C)C)cc3)C[C@@]21C [Compound 126b] | – | – | – | 15 | 125 | 76 | antiClauberg / oral antiprogestational activity, in words [4]: greater activity than the standard
COCC(=O)C1(OC)CCC2C3CCC4=CC(=O)CCC4=C3C(c3ccc(N4CCCCC4)cc3)CC21C (stereo not drawn) [Compound 113c, 17α,21-Dimethoxy-11β-[4-(N-piperidino)phenyl]-19-norpregna-4,9-diene-3,20-dione] | – | – | – | 45 | 70 | 63 | –
